Paper PMC5137954, “Importance of measuring testosterone in enzyme-inhibited plasma for oral testosterone undecanoate androgen replacement therapy clinical trials” (Future Science OA, 2015)

Experiments:
[1] = Clinical study of oral TU: T and DHT in serum versus NaF/Na2 EDTA plasma; details: day 84, oral TU twice daily, fed, 15 hypogonadal men; serum vs NaF-Na2 EDTA plasma
Method: A clinical study was performed at the inVentiv Health Clinical facilities where fifteen asymptomatic hypogonadal male subjects aged 18 to 75 years were administered an oral dose of TU twice daily for 84 consecutive days under fed conditions. Each volunteer was informed on the risk of procedure and risk of the clinical study by signing the informed consent. On day 84, serum and plasma samples were collected predose and at 1.5, 3, 4, 5, 6, 8, 10, 12, 13.5, 15, 16, 17, 18, 20, 22 and 24 h after the morning dose. One of the main objectives of this study part was to compare the levels of T and DHT measured with a validated method in NaF/Na2 EDTA plasma to the levels measured in serum.
Pharmacokinetic (PK) parameters were assessed using samples collected on day 84: Ln-transformed area under the concentration–time curve (AUC0–24) and the maximum concentration of analyte (Cmax0–24) obtained with the study samples collected from 0–24 h after the morning dose of TU on last study day 84 were used to compare the levels of testosterone, DHT, TU and DHTU measured in serum in comparison to the levels measured in plasma.
Data reported in Table 5 were obtained from a cohort of 15 subjects undergoing a clinical study of a novel formulation of TU. Table 5 presents summaries of the comparison of the PK results for T and DHT obtained using serum and plasma samples for each analyte. Figure 2 presents the mean analyte concentrations obtained from the serum and plasma samples.

[2] = Stability of T and DHT in NaF/Na2EDTA plasma in presence of TU, DHTU and glucuronides (method validation); details: for % Bias of testosterone concentration / % Bias of dihydrotestosterone concentration: DHTU and glucuronides; for increase of the T and DHT concentrations (degradation of TU and DHTU into T or DHT): low and high QCs, room temperature or 4°C, long-term storage at -20 and -80°C
Method: The methods were validated as per the most recent US FDA and EMA validation guidelines. During the method validation, the accuracy, precision, within-run, between-run, selectivity, matrix effect as well as the stability (stability in whole blood at 4°C, short-term stability in matrix at room temperature, freeze–thaw stability at -20°C/-80°C, long-term stability at -20°C/-80°C) were evaluated.
The impact of the glucuronide was also assessed in whole blood during sample collection and handling.
Moreover, the possible degradation of TU and DHTU into T or DHT was assessed when low and high T and DHT level quality controls were submitted to freeze–thaw cycles, incubation at room temperature or 4°C and long-term storage at -20 and -80°C.
Low QC samples were fortified with testosterone undecanoate (3000 ng/dL), dihydrotestosterone undecanoate (1500 ng/dL), testosterone glucuronide (800 ng/dL) and dihydrotestosterone undecanoate (400 ng/dL). High QC samples were fortified with testosterone undecanoate (219000 ng/dL), dihydrotestosterone undecanoate (235100 ng/dL), testosterone glucuronide (93600 ng/dL) and dihydrotestosterone undecanoate (21900 ng/dL). The%Bias must be within 15%.

[3] = TU to T conversion depending on the TU spiking solvent used; format: in vitro ADME, human
Method: We decided to investigate further to better understand the discordance between the conclusions. Literature descriptions of sample preparations include a stock solution prepared in ethanol and diluted in phosphate buffer saline (PBS). In the experiments carried out in the study reported here, it was observed that the stock and spiking solution preparation is very important. A stock solution of TU was prepared in ethanol and diluted with PBS prior to being added to whole blood. Results from this procedure were compared with those typically used in our experiments with TU stock prepared and diluted using methanol, prior to being added to whole blood. It was observed that a precipitate occurred in the PBS solution after a freeze–thaw cycle.
To investigate this effect further, freshly collected whole blood was collected in conventional serum tubes and in NaF/K2C2O4 tubes. Each whole blood tube was fortified with TU at a final concentration of 60,000 ng/dl with solution prepared either in methanol or in ethanol/PBS; each experiment was performed in triplicate. Serum samples were incubated at room temperature for 30 and 60 min, and plasma samples were incubated for 10, 30 and 60 min at 4°C. T and TU were analyzed in the plasma and serum samples obtained.

[4] = conclusion of a published method validation; cited from earlier work
[5] = in serum or plasma, sometimes; cited from earlier work

SMILES: C[C@]12CC[C@H]3[C@@H](CCC4=CC(=O)CC[C@@]43C)[C@@H]1CC[C@@H]2O [Testosterone, testosterone]
- Ratio (serum/plasma) of AUC0–24 [1]: 130.02%
- Ratio (serum/plasma) of Cmax0–24 [1]: 134.01%
- % Bias of testosterone concentration ([2]; High QC 2300.0 ng/dL fortified with TU, Freeze/Thaw at -20°C (4 Cycles)): -3.3%
- % Bias of testosterone concentration ([2]; High QC 2300.0 ng/dL fortified with TU, Freeze/Thaw at -80°C (4 Cycles)): -3.4%
- % Bias of testosterone concentration ([2]; High QC 2300.0 ng/dL fortified with TU, Long-Term at -20°C for 14 days): -1.8%
- % Bias of testosterone concentration ([2]; High QC 2300.0 ng/dL fortified with TU, Long-Term at -80°C for 14 days): -3.1%
- % Bias of testosterone concentration ([2]; High QC 2300.0 ng/dL fortified with TU, Post-Preparative at RT for 69 hrs): 10.1%
- % Bias of testosterone concentration ([2]; High QC 2300.0 ng/dL fortified with TU, Short-Term at 4°C for 21 hrs): 0.6%
- % Bias of testosterone concentration ([2]; High QC 2300.0 ng/dL fortified with TU, Short-Term at RmT for 23 hrs): 0.2%
- % Bias of testosterone concentration ([2]; High QC 2300.0 ng/dL fortified with TU, Whole Blood on ice for 110 min): 8.3%
- % Bias of testosterone concentration ([2]; Low QC 40.0 ng/dL fortified with TU, Freeze/Thaw at -20°C (4 Cycles)): -5.8%
- % Bias of testosterone concentration ([2]; Low QC 40.0 ng/dL fortified with TU, Freeze/Thaw at -80°C (4 Cycles)): -5.8%
- % Bias of testosterone concentration ([2]; Low QC 40.0 ng/dL fortified with TU, Long-Term at -20°C for 14 days): -1.9%
- % Bias of testosterone concentration ([2]; Low QC 40.0 ng/dL fortified with TU, Long-Term at -80°C for 14 days): 2.1%
- % Bias of testosterone concentration ([2]; Low QC 40.0 ng/dL fortified with TU, Post-Preparative at RT for 69 hrs): 14.0%
- % Bias of testosterone concentration ([2]; Low QC 40.0 ng/dL fortified with TU, Short-Term at 4°C for 21 hrs): -4.2%
- % Bias of testosterone concentration ([2]; Low QC 40.0 ng/dL fortified with TU, Short-Term at RmT for 23 hrs): -2.5%
- % Bias of testosterone concentration ([2]; Low QC 40.0 ng/dL fortified with TU, Whole Blood on ice for 110 min): -11.1%

SMILES: C[C@]12CCC(=O)C[C@@H]1CC[C@@H]1[C@@H]2CC[C@]2(C)[C@@H](O)CC[C@@H]12 [Dihydrotestosterone, dihydrotestosterone]
- Ratio (serum/plasma) of AUC0–24 [1]: 122.40%
- Ratio (serum/plasma) of Cmax0–24 [1]: 130.61%
- % Bias of dihydrotestosterone concentration ([2]; High QC 430.0 ng/dL fortified with TU, Freeze/Thaw at -20°C (4 Cycles)): -10.2%
- % Bias of dihydrotestosterone concentration ([2]; High QC 430.0 ng/dL fortified with TU, Freeze/Thaw at -80°C (4 Cycles)): -10.7%
- % Bias of dihydrotestosterone concentration ([2]; High QC 430.0 ng/dL fortified with TU, Long-Term at -20°C for 14 days): -4.4%
- % Bias of dihydrotestosterone concentration ([2]; High QC 430.0 ng/dL fortified with TU, Long-Term at -80°C for 14 days): -5.4%
- % Bias of dihydrotestosterone concentration ([2]; High QC 430.0 ng/dL fortified with TU, Post-Preparative at RT for 69 hrs): 8.6%
- % Bias of dihydrotestosterone concentration ([2]; High QC 430.0 ng/dL fortified with TU, Short-Term at 4°C for 21 hrs): -0.5%
- % Bias of dihydrotestosterone concentration ([2]; High QC 430.0 ng/dL fortified with TU, Short-Term at RT for 23 hrs): 2.5%
- % Bias of dihydrotestosterone concentration ([2]; High QC 430.0 ng/dL fortified with TU, Whole Blood on Ice for 110 min): 0.3%
- % Bias of dihydrotestosterone concentration ([2]; Low QC 19.2 ng/dL fortified with TU, Freeze/Thaw at -20°C (4 Cycles)): -14.6%
- % Bias of dihydrotestosterone concentration ([2]; Low QC 19.2 ng/dL fortified with TU, Freeze/Thaw at -80°C (4 Cycles)): -14.9%
- % Bias of dihydrotestosterone concentration ([2]; Low QC 19.2 ng/dL fortified with TU, Long-Term at -20°C for 14 days): -8.7%
- % Bias of dihydrotestosterone concentration ([2]; Low QC 19.2 ng/dL fortified with TU, Long-Term at -80°C for 14 days): -8.1%
- % Bias of dihydrotestosterone concentration ([2]; Low QC 19.2 ng/dL fortified with TU, Post-Preparative at RT for 69 hrs): 5.1%
- % Bias of dihydrotestosterone concentration ([2]; Low QC 19.2 ng/dL fortified with TU, Short-Term at 4°C for 21 hrs): -9.1%
- % Bias of dihydrotestosterone concentration ([2]; Low QC 19.2 ng/dL fortified with TU, Short-Term at RT for 23 hrs): -6.1%
- % Bias of dihydrotestosterone concentration ([2]; Low QC 19.2 ng/dL fortified with TU, Whole Blood on Ice for 110 min): -6.1%

SMILES: CCCCCCCCCCC(=O)O[C@H]1CCC2C3CCC4=CC(=O)CC[C@]4(C)C3CC[C@@]21C (stereo partly drawn) [TU, Testosterone undecanoate]
- Mean TU Concentration ([3]; whole blood spiked with TU in PBS, 60,000 ng/dl, 30 min serum RT): 3991.0 ng/dL
- Mean TU Concentration ([3]; whole blood spiked with TU in PBS, 60,000 ng/dl, 60 min serum RT): 5892.3 ng/dL
- Mean TU Concentration ([3]; whole blood spiked with TU in PBS, 60,000 ng/dl, NaF/K2C2O4 plasma 10 min 4°C): 74408.7 ng/dL
- Mean TU Concentration ([3]; whole blood spiked with TU in PBS, 60,000 ng/dl, NaF/K2C2O4 plasma 30 min 4°C): 54088.0 ng/dL
- Mean TU Concentration ([3]; whole blood spiked with TU in PBS, 60,000 ng/dl, NaF/K2C2O4 plasma 60 min 4°C): 26618.7 ng/dL
- Mean TU Concentration ([3]; whole blood spiked with TU in methanol, 60,000 ng/dl, 30 min serum RT): 97110.3 ng/dL
- Mean TU Concentration ([3]; whole blood spiked with TU in methanol, 60,000 ng/dl, 60 min serum RT): 96132.3 ng/dL
- Mean TU Concentration ([3]; whole blood spiked with TU in methanol, 60,000 ng/dl, NaF/K2C2O4 plasma 10 min 4°C): 97235.0 ng/dL
- Mean TU Concentration ([3]; whole blood spiked with TU in methanol, 60,000 ng/dl, NaF/K2C2O4 plasma 30 min 4°C): 95628.0 ng/dL
- Mean TU Concentration ([3]; whole blood spiked with TU in methanol, 60,000 ng/dl, NaF/K2C2O4 plasma 60 min 4°C): 93816.3 ng/dL
- increase of the T and DHT concentrations (degradation of TU and DHTU into T or DHT) ([2]; freeze–thaw cycles): No increase
- stability of TU in blood [4]: stable
- TU concentration higher than the testosterone concentration [5]: 20- to 30 times

SMILES: C[C@]12CC[C@H]3[C@@H](CCC4=CC(=O)CC[C@@]43C)[C@@H]1CC[C@@H]2O[C@@H]1O[C@H](C(=O)O)[C@@H](O)[C@H](O)[C@H]1O [Testosterone glucuronide, testosterone glucuronide]
- impact on the quantitation of T and DHT ([2]; low and high QCs fortified with testosterone glucuronide, freeze–thaw cycles, room temperature, 4°C, long-term storage at -20 or -80°C): no impact

SMILES: CCCCCCCCCCC(=O)O[C@H]1CCC2C3CCC4CC(=O)CC[C@]4(C)C3CC[C@@]21C (stereo partly drawn) [DHTU, 5-alpha-dihydrotestosterone undecanoate]
- increase of the T and DHT concentrations (degradation of TU and DHTU into T or DHT) ([2]; freeze–thaw cycles): No increase
